{"source": "patent US6518399B1", "about": "“Receptor” (Smithkline Beecham Corporation, priority 1998, dated 2003)", "molecules": {"B1": {"name": "GABAB-R2 C-terminal domain, GAL4 fusion (receptor, not shown: small tags and cut ends)", "chain": "VPKLITLRTNPDAATQNRRFQFTQNQKKEDSKTSTSVTSVNQASTSRLEGLQSENHRLRMKITELDKDLEEVTMQLQDTPEKTTYIKQNHYQELNDILNLGNFTESTDGGKAILKNHLDQNPQLQWNTTEPSRTCKDPIEDINSPEHIQRRLSLQLPILHHAYLPSIGGVDASCVSPCVSPTASPRHRHVPPSFRVMVSGL", "notes": "Only the intracellular C-terminal domain of GABAB-R2 was used; also called GABAB-R2 C-terminus; YTH HITS"}}, "key": {"[1]": {"system": "GABAB-R1a, GABAB-R1b or GABAB-R2 receptors expressed alone", "assay_type": "cell-based, human", "details": "for Functional response, CFTR or GIRK1/4 current: GABAB-R1a, GABAB-R1b or GABAB-R2 expressed singly with CFTR or GIRK1/4", "procedure": "Adult female Xenopus laevis (Blades Biologicals) were anaesthetised using 0.2% tricaine (3-aminobenzoic acid ethyl ester), killed and the ovaries rapidly removed. […] Single stage V and VI oocytes were transferred to ND96 solution (96 mM NaCl, 2 mM KCl, 1 mM MgCl2, 1.8 mM CaCl2, 5 mM HEPES; pH 7.5 at 25° C.) which contained 50 μg ml^−1 gentamycin and stored at 18° C.\nGABAB-R1a, GABAB-R1b (both in pcDNA3.1rev, Invitrogen), GABAB-R2, GIRK1, GIRK4 (in pcDNA3) and cystic fibrosis transmembrane regulator (CFTR; in pBluescript, Stratagene) were linearised and transcribed to RNA using T7 or T3 polymerase (Promega Wizard kit). m′G(5′)pp(5′)GTP capped cRNA was injected into oocytes (20-50 nl of 1 μgμl^−1 RNA per oocyte) and whole-cell currents were recorded using two-microelectrode voltage-clamp (Geneclamp amplifier, Axon instruments Inc.) 3 to 7 days post-RNA injection. […] In all experiments oocytes were voltage-clamped at a holding potential of −60 mV in ND96 solution (superfused at 2 ml per min.) and agonists were applied by addition to this extracellular solution. In GIRK experiments the extracellular solution was changed to a high potassium solution prior to agonist application, to facilitate the recording of inward potassium currents. Current-voltage curves were constructed by applying 200 ms voltage-clamp pulses from the holding potential of […] to test potentials between −100 mV and +50 mV."}, "[2]": {"target": "T1, HA-GABAB-R2 (Homo sapiens, UniProt O75899)", "T1 construct": "heterodimerisation between full-length expressed GABAB-R1 and GABAB-R2 in mammalian cells; expressed in transfected cells; host or cells: HEK293T", "T1 sequence (O75899 42-941)": "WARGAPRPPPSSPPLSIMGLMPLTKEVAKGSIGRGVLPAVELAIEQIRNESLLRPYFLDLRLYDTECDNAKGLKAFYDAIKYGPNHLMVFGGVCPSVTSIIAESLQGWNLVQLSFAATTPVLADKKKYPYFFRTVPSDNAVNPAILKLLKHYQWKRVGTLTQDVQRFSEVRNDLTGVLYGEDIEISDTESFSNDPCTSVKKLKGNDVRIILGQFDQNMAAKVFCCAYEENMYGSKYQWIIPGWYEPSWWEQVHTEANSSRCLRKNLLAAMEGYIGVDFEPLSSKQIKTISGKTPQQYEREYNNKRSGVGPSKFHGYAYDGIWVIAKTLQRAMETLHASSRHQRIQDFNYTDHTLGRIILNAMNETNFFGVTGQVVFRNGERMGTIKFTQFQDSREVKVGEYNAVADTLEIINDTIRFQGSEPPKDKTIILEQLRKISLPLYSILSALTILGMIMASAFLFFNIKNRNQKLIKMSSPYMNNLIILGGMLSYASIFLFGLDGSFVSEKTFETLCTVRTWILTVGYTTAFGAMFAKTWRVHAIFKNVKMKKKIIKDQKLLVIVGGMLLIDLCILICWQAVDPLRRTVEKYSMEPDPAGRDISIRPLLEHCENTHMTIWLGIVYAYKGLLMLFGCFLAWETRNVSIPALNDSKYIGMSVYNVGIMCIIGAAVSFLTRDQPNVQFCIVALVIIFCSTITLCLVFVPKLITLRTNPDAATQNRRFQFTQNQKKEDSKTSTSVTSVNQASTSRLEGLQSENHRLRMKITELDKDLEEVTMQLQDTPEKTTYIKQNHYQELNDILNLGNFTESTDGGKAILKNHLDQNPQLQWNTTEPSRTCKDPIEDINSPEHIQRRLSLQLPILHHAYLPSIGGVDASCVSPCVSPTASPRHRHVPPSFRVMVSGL", "assay": "[3H]-CGP54626 binding, HEK293T cells transfected with HA-GABAB-R2 alone", "details": "HA-GABAB-R2 alone (data not shown)", "from_the_text": "[…]. […] […]"}, "[3]": {"target": "HA-GABAB-R1b (Homo sapiens, UniProt Q9UBS5)", "sequence (Q9UBS5 30-844 isoform Q9UBS5-2 limits assumed)": "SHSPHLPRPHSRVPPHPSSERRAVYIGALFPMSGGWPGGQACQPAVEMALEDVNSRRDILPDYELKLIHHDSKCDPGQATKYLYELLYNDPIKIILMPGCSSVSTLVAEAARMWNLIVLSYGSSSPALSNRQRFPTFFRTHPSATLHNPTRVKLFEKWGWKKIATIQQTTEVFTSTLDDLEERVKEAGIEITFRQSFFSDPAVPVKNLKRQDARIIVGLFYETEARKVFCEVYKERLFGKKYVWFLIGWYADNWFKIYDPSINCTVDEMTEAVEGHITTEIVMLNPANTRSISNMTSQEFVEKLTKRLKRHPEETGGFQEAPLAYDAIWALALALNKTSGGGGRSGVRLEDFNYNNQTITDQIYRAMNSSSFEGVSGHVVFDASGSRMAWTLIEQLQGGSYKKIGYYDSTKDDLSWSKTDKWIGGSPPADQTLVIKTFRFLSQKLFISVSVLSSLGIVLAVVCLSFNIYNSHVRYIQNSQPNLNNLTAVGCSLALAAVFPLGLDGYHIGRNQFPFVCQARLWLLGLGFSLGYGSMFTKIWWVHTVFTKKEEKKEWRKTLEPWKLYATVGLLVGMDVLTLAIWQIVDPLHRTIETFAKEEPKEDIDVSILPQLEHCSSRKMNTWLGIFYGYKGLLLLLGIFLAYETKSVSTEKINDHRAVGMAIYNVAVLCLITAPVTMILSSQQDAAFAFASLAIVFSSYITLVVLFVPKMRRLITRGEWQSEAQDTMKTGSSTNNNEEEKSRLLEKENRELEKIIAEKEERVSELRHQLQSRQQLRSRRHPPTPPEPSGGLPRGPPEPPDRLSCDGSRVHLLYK", "assay": "[3H]-CGP54626 binding, HEK293T membranes expressing HA-GABAB-R1b alone", "details": "HA-GABAB-R1b expressed alone", "method": "Competition binding assays were performed in 50 mM Tris HCl buffer (pH7.4) containing 40 μM isoguvacine (Tocris Cookson) to block rat brain GABAA binding sites. P2 membrane preparations were made from HEK293T cells transfected using conditions described above. […] Assay conditions were 0.4-0.6 nM [^3H]-CGP54626, incubated with 50 μg/tube crude rat brain ‘mitochondrial’ fractions or 25 μg/tube HEK293T P2 membranes at room temperature for 20 minutes."}, "[4]": {"target": "the molecule itself", "assay": "yeast two hybrid, GAL4BD and GAL4AD fusions of the C-termini (FIG. 5); the library screen also did not retrieve the GABAB-R1 C-terminal domain"}, "[5]": {"target": "B1", "assay": "yeast two hybrid, direct test of the C-termini (β-galactosidase, FIG. 5); GABAB-R2 C-terminal domain also recovered 33 times in the library screen with the GABAB-R1 bait"}, "[6]": {"target": "the molecule itself", "assay": "yeast two hybrid, GAL4BD and GAL4AD fusions of the C-termini (FIG. 5)"}}}
{"molecule": "NCC(CC(=O)O)c1ccc(Cl)cc1", "note": "(centres unmarked) [Baclofen]", "values": [{"measurement": "Functional response, CFTR or GIRK1/4 current", "setting": "[1]", "value": "No functional responses"}]}
{"molecule": "NCCCC(=O)O", "note": "[GABA, γ-amino-butyric acid]", "values": [{"measurement": "Functional response, GIRK1/4 current", "setting": "[1]; GABAB-R1a and GABAB-R1b expressed alone (data not shown)", "value": "gave no response to GABA"}, {"measurement": "Functional response, CFTR or GIRK1/4 current", "setting": "[1]", "value": "No functional responses"}]}
{"molecule": "C[C@H](NC[C@H](O)CP(=O)(O)CC1CCCCC1)c1ccc(Cl)c(Cl)c1", "note": "[[3H]-CGP54626]", "values": [{"measurement": "Specific binding of radioligand", "setting": "[2]", "value": "unable to detect any [3H]-CGP54626 specific binding"}, {"measurement": "Specific binding of radioligand", "setting": "[3]", "value": "high levels of specific binding"}]}
{"molecule": "GABAB-R1 C-terminal domain (C-terminal 108 amino acids of GABAB-R1), GAL4 fusion (receptor, not shown: small tags and cut ends, Used as GAL4BD fusion in the library screen and as both GAL4BD and GAL4AD fusions in the direct test (all combinations); also called GABAB-R1 C-terminus; GAL4BD-GABAB-R1 C-terminus) VPKMRRLITRGEWQSEAQDTMKTGSSTNNNEEEKSRLLEKENRELEKIIAEKEERVSELRHQLQSRQQLRSRRHPPTPPEPSGGLPRGPPEPPDRLSCDGSRVHLLYK", "values": [{"measurement": "binding result", "setting": "[4]", "value": "no binding"}, {"measurement": "binding result", "setting": "[5]", "value": "binds"}]}
{"molecule": "B1", "values": [{"measurement": "binding result", "setting": "[6]", "value": "no binding"}]}
